Our source for the IC50, AC50 and EC50 values is ChEMBL document CHEMBL1201862, “PubChem BioAssay data set” (2004).

The source made the active and inactive calls.

A word on the IC50: it is the concentration needed to halve the response being measured. In general, AC50 refers to the concentration giving half of the maximal activity seen. The term EC50 denotes the concentration at which the effect is half-maximal.

One assay concerns the target T1, Cysteine protease ATG4B (Homo sapiens, UniProt Q9Y4P1).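 Further: Fluorescence-based dose-response confirmation assay measuring inhibition of ATG4B activity.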
T1 sequence (Q9Y4P1 whole entry): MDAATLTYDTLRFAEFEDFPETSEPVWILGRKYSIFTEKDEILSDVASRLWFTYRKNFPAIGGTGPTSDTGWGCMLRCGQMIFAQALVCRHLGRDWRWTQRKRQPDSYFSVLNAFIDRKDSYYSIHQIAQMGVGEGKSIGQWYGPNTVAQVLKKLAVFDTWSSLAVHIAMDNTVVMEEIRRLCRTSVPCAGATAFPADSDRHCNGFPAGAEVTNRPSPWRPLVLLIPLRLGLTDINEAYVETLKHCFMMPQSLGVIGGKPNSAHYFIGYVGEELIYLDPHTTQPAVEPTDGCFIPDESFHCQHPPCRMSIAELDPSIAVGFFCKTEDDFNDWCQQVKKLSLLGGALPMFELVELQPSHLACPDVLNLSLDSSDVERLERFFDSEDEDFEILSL
The format is functional.

In another assay the target is Phospholipase A2 (Homo sapiens, UniProt P04054). The format is functional.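 Further: confirmatory dose-response counterscreen on phospholipase A2, testing hits that came from an ultra-high-throughput screen for ATG4B inhibitors.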
For assay [1], the target named is 26S proteasome non-ATPase regulatory subunit 14 (Homo sapiens, UniProt O00487). Kind of assay: inhibition of proteasome subunit RPN11 – biochemical, fluorescence polarization, uHTS hits, confirmation (AID 602368). Format: functional. A general note: Polarisation of emitted light reports the rotation of a fluorescent probe.
Assay [2] has as its target 72 kDa type IV collagenase (Homo sapiens, UniProt P08253). The assay is described as follows: Dose Response validation of uHTS RPN11 inhibitor hits using a MMP-2 Fluorescence assay. Format: functional.
A further assay has as its target Prothrombin (Bos taurus, UniProt P00735). Kind of assay: thrombin inhibition, dose response, biochemical, fluorescence polarization, uHTS hits (AID 602369). The format is functional.
Assay [3] concerns A-375. Kind of assay: MITF: Counter assay: A375 proliferation Measured in Cell-Based System Using Plate Reader - 2084-03_Inhibitor_Dose_DryPowder_Activity. [Related pubchem assays (depositor defined):AID488944]. Format: functional. To be noted: Homo sapiens.
The test system of assay [4] is A-375. The assay is described as follows: A375 melanoma cell viability reduction, dose response, counter-screen for MITF modulator project, cherry-pick samples, set 2 (AID 540335). Format: functional, cell-based. The note with it: Homo sapiens. Background: The purpose of a counterscreen is to sort out artefacts and off-target activity.
For assay [5], the target named is T2, RNA-binding protein pos-1 (Caenorhabditis elegans, UniProt G5EF15).
T2 sequence (G5EF15 whole entry): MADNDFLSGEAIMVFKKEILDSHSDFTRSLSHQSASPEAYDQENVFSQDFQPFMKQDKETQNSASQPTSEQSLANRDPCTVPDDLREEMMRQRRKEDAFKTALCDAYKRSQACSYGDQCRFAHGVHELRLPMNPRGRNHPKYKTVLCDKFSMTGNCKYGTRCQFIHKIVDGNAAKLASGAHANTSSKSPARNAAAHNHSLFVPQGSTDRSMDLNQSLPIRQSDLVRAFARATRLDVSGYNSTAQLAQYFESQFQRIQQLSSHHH
Kind of assay: inhibitors of POS-1/mex-3 RNA binding, dose response, biochemical, fluorescence polarization (AID 1964).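 Further: purified POS-1 fused to maltose binding protein made in E. coli; potency of compounds blocking POS-1 binding to fluorescent RNA.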

Assay [6] addresses T3, Zinc finger protein mex-5 (Caenorhabditis elegans, UniProt Q9XUB2).
T3 sequence (Q9XUB2 whole entry): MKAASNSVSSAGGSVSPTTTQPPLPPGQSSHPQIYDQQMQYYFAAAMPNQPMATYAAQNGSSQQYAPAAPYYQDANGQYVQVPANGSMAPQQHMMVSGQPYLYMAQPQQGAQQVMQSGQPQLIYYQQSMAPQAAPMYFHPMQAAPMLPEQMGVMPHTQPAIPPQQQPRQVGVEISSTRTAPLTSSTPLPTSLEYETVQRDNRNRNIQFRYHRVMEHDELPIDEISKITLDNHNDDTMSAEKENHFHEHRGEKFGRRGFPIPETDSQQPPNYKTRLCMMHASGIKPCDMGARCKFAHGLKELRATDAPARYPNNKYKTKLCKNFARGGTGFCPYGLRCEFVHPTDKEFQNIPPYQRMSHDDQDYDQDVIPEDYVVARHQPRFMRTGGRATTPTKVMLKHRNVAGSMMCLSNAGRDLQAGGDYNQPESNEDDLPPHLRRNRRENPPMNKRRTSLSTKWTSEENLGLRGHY
Kind of assay: MEX-5/TCR-2 RNA interaction inhibitors, dose response, biochemical, C. elegans, fluorescence polarization (AID 1960).

For the next assay, the target named is Nonstructural protein 1 (Influenza A virus, UniProt Q194T2). Format: functional, Influenza A virus (A/California/07/2009(H1N1)).
The target in assay [7] is T4, Microphthalmia-associated transcription factor (Homo sapiens, UniProt O75030).
T4 sequence (O75030 whole entry): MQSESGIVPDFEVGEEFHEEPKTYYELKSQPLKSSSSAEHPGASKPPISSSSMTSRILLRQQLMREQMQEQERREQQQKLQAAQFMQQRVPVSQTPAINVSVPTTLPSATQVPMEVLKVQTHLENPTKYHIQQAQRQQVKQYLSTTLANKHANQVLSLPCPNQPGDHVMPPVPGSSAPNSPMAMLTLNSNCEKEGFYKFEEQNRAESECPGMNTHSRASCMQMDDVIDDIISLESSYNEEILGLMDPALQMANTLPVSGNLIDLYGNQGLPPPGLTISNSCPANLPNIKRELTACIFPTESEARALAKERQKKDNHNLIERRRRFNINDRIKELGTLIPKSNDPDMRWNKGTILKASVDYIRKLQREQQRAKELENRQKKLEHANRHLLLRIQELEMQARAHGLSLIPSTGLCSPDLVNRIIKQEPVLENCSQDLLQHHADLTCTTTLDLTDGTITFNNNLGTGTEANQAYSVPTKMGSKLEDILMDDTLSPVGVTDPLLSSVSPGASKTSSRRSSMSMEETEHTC
The assay is described as follows: TRPM1 promoter luciferase signal decrease, dose response, MITF inhibitor project, cell-based, SK-MEL-5, cherry-picked, set 3 (AID 493073).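 Further: SK-MEL-5 melanoma cells with luciferase driven by the MITF target TRPM1 promoter.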 Format: functional.

Assay [8] is described as follows: cytotoxicity in HEK-293T cells, dose response, cytotoxicity control for TCR NF-kB inhibitor project, luminescence, T-cell screen hits (AID 489026).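 Further: cells exposed to compound about 14 hours before the viability readout.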 The format is functional, cell-based.
A further assay deals with H9c2. The assay is described as follows: cells. Format: functional, cell-based. To be noted: Rattus norvegicus, H9c2, Myocardium.
The nature of assay [9]: inhibitors of firefly luciferase expression or activity, dose response, H4 neuroglioma cells, luminescence (AID 1990). Format: functional, cell-based.
A short description of assay [10]: Luminescence Cell-Based Dose Response HTS to Identify Inhibitors of 5'UTR Stem-Loop Driven Prion Protein mRNA Translation in H4 Neuroglioblastoma Cells. [Related pubchem assays: 1827 (Project Summary), 1813 (Primary HTS)]. The format is functional.
Assay [11] can be described thus: inhibitors of SNCA 5'UTR-driven reporter translation, confirmation, H4 neuroglioma cells, luminescence (AID 1988). The format is functional, cell-based.
A further assay concerns CHO-K1. The assay is described as follows: Counterscreen for antagonists of the orexin 1 receptor (OX1R; HCRTR1): Homogeneous time resolved fluorescence (HTRF)-based cell-based dose response assay to identify antagonists of the parental CHO-K1 cell line. [Related pubchem assays (depositor defined):AID434989, AID435008, AID463079, AID485270, AID492963, AID492964, AID492965, AID493232, AID504699, AID504701]. Format: functional. To be noted: Cricetulus griseus.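 Further: potency for inhibition of ATP-stimulated IP1 production as antagonists.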

Assay [12] can be described thus: Counterscreen for antagonists of the orexin 1 receptor (OX1R; HCRTR1): Fluorescence-based cell-based high throughput dose response assay to identify antagonists of the parental CHO cell line. [Related pubchem assays (depositor defined):AID434989, AID435008, AID463079, AID485270, AID492963, AID492964, AID492965, AID493232, AID504699, AID504701]. Format: functional.

Assay [13] concerns the target T5, Orexin/Hypocretin receptor type 1 (Homo sapiens, UniProt O43613).
T5 sequence (O43613 whole entry): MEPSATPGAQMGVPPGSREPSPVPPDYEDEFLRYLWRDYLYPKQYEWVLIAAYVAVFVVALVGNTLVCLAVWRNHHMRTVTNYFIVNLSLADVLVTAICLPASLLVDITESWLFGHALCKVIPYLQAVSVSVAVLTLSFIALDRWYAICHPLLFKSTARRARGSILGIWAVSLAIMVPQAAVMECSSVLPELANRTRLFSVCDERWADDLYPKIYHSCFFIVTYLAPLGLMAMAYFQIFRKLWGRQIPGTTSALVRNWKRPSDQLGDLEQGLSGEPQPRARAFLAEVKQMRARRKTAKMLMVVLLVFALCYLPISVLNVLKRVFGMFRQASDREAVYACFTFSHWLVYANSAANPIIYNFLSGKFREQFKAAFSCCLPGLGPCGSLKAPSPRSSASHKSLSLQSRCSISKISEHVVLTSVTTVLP
The assay is described as follows: Homogeneous Time Resolved Fluorescence (HTRF)-based cell-based high throughput dose response assay for antagonists of the orexin 1 receptor (OX1R; HCRTR1). [Related pubchem assays (depositor defined):AID434989, AID435008, AID463079, AID485270, AID492963, AID492964, AID492965, AID493232, AID504717, AID504718]. Format: functional. For orientation: TR-FRET usually uses a lanthanide donor and a delayed reading to cut background.

Assay [14] addresses T5, Orexin/Hypocretin receptor type 1. Kind of assay: Fluorescence-based cell-based high throughput dose response assay for antagonists of the orexin 1 receptor (OX1R; HCRTR1). [Related pubchem assays (depositor defined):AID434989, AID435008, AID463079, AID485270, AID492963, AID492964, AID492965, AID493232, AID504717, AID504718]. The format is functional.
The nature of assay [15]: growth suppression of PTEN-null colon cells, dose response, cell-based, HCT116 PTEN knockout (AID 1047).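 Further: HCT116 colon tumor cells with PTEN knocked out; cells exposed to compound for 60 hours before readout; potency for loss of cell viability measured by luminescence.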 Format: functional.
A short description of assay [16]: growth suppression of beta-catenin-knockout colon cells, dose response, cell-based, HCT116, human colon tumor (AID 1045).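 Further: HCT116 colon tumor cells with beta catenin knocked out; cells exposed to compound for 60 hours.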 Format: functional.
Assay [17] is described as follows: Luminescence Cell-Based Dose Retest to Confirm Inhibitors of Cancer Stem Cells. [Related pubchem assays (depositor defined):AID2717, AID2721]. The format is functional. The note with it: Homo sapiens.
A short description of the next assay: cells. The format is functional.

Sequence of Phospholipase A2 (P04054 whole entry): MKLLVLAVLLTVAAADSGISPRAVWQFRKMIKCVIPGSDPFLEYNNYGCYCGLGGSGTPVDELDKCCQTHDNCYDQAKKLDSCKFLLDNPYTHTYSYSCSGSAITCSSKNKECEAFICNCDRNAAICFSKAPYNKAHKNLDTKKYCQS
Sequence of 26S proteasome non-ATPase regulatory subunit 14 (O00487 whole entry): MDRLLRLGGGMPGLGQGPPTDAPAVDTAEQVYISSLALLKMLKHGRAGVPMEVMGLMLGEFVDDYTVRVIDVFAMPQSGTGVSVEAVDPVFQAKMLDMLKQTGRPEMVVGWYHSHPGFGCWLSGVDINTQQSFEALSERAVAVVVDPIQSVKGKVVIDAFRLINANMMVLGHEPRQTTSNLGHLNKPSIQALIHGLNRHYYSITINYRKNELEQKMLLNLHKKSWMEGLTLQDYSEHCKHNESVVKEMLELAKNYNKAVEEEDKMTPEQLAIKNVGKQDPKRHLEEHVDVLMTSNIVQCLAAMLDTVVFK
Sequence of 72 kDa type IV collagenase (P08253 whole entry): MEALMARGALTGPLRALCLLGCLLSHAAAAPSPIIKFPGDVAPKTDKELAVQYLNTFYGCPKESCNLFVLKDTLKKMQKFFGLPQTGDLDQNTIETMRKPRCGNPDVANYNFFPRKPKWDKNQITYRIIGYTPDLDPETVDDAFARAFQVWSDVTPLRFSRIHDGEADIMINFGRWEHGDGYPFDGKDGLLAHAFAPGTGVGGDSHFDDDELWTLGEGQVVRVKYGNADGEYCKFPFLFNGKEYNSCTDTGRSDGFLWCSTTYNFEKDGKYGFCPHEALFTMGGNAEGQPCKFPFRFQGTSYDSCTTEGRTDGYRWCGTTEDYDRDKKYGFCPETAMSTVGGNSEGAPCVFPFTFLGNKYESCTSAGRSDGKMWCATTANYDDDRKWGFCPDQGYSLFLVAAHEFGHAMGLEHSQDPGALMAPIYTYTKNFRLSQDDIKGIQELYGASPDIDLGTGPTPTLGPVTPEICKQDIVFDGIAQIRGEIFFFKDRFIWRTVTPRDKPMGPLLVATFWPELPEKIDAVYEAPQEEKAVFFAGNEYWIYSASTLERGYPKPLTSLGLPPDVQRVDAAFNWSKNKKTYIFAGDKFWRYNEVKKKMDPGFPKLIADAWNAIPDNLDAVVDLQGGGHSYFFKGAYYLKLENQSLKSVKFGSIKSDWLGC
Sequence of Nonstructural protein 1 (Q194T2 whole entry): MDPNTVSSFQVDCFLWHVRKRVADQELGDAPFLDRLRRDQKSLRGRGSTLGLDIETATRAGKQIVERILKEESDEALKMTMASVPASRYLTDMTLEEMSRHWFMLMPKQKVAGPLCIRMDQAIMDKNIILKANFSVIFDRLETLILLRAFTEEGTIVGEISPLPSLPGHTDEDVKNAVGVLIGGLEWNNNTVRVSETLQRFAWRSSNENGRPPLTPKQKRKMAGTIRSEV

Turning to `CCCc1ccc(OC(=O)c2cccs2)cc1`, the IC50 at Cysteine protease ATG4B is 10.7 µM (active); on Phospholipase A2, 10.2 µM (active).

`Clc1ccccc1CN1CCN(c2ccccc2Cl)CC1`: the IC50 was 11.5 µM (active) on Cysteine protease ATG4B and 6.52 µM (active) on Phospholipase A2.

As for `CC1=Nc2ccccc2/C1=C\c1nc(-c2ccccc2)oc1O`, the IC50 in assay [1] is 4.18 µM (active); in assay [2] it was > 100 µM (inactive); at Prothrombin, 7.22 µM (active).

For `CC(C)C(NC(=O)OCc1ccccc1)C(=O)OCC(=O)N1CCCCC1` (stereo not given), the AC50 in the assay with A-375 [3] and in the assay with A-375 [4] was > 35 µM (active) throughout.

Consider `Cc1cc(/C=C(/C#N)c2nc3ccccc3[nH]2)c(C)n1-c1ccccc1C(=O)O`, for which the EC50 in assay [5] and in assay [6] was > 300 µM (not active) each time. Moreover, the IC50 is 26.2 µM (active) in assay [1], > 100 µM (inactive) in [2] and 25.5 µM (active) on Prothrombin.

Consider `Oc1c(CN2CCCC2)cc(COCc2ccccc2)c2cccnc12`, for which the IC50 on Nonstructural protein 1 is 3.78 µM (active). The values for the AC50 (in [7]; in the assay with A-375 [3]) were 6.15 µM (active) and 32.7 µM (active), respectively.

Regarding `COc1ccccc1NC(=O)c1cnc(Nc2ccccc2OC)c2ccccc12`, the IC50 in [8] is > 80 µM (inactive).

As to `O=C(Nc1ccc(Cl)c(S(=O)(=O)N2CCOCC2)c1)c1ccc(OCC2CCCO2)cc1` (stereo not given), in assay [8], the IC50 was 16.9 µM (active). Also, the concentration at half-maximal activity (AC50) in assay [7] is 3.26 µM (active).

On to `CCOc1ccc(NC(=O)c2cc3c(C)nc4ccccc4c3o2)cc1`, for which the IC50 was > 80 µM (inactive) in assay [8] and > 79 µM (inactive) with H9c2.

As for `COC(=O)c1ccc(C)c(NS(=O)(=O)c2ccc3c(c2)OCCO3)c1`, the EC50 in assay [9] was 8.4 µM (inconclusive); in assay [10], 9.9 µM (active); in assay [11], 1.3 µM (active). Besides, in assay [8], the IC50 is > 80 µM (inactive).

As for `O=C1N[C@@H](c2ccccc2)COC(=O)[C@@H](Cc2ccc(F)cc2)C/C=C\C[C@@H]1CC(=O)N(CCO)Cc1ccccc1`, the IC50 in the assay on CHO-K1 was > 66.2 µM (inactive); in [12] it was > 49.7 µM (inactive); in [13] it was 12 µM (inactive); in [14], 13.8 µM (inactive).

On to `C=C(C)Cn1c(SCC(=O)N/N=C/c2c(O)ccc3ccccc23)nc2ccccc2c1=O`, for which the EC50 was 19.5 µM (active) in [15] and 16.6 µM (active) in assay [16]. Besides, the AC50 in assay [17] was 3.05 µM (active). Also, the results for the IC50 on Cysteine protease ATG4B and at Phospholipase A2 were 13.3 µM (active) and 7.98 µM (active), respectively.

Turning to `O=C(N/N=C/C=C/c1ccccc1)c1ccccn1`, the IC50 in “cells” was 11.2 µM (active). In addition, the AC50 with A-375 [3] and in the assay on A-375 [4] was > 35 µM (active) each time.

`O=C(CSc1nc2ccccc2c(=O)n1-c1ccc(Cl)cc1)N/N=C/C=C/c1ccccc1[N+](=O)[O-]`: the results for the IC50 on Cysteine protease ATG4B and on Phospholipase A2 were 8.92 µM (active) and 1.18 µM (active), respectively.
